Where “and” joins values, the source holds several entries; their conditions need not be identical. Identical values can stand only once. Like-named read-outs stand apart in the source and are kept apart here.
Key:
[1] = test system: CDK2 gene in HCT-116 cells; test: qRT-PCR expression profile of the CDK2 gene in HCT-116 cells; format: cell-based, human; conditions: 24 h, relative to untreated cells (given as decreased x-fold)
Protocol: Second, the expression profiles of the CDK2 gene in HCT-116 cells treated with compounds 4d and 4k were determined. The results were compared with the positive control (cells treated with the well-known cytotoxic drug 5-fluorouracil) and the negative control (untreated cells).
Primers specific for the cyclin-dependent kinase-2 (CDK2) and caspase-3 genes were designed using primer blast (https://www.ncbi.nlm.nih.gov/tools/primer-blast/, accessed on 31 October 2021) or primer3 (https://primer3.ut.ee/, accessed on 31 October 2021) software. The selected genes covered the two main groups of the cyclin-dependent kinase-2 (CDK2) gene and the caspase-3 gene. Primers were used in RT-qPCR analysis to amplify fragments of 100–200 bp in length (Table 7).
Total RNA was extracted from each cell culture flask using the RNeasy extraction kit (RNeasy micro kit, cat. no. 74004). Up to 1 × 10^6 cells, depending on the cell line, were disrupted in buffer RLT and homogenized and disrupted. Ethanol was then added to the lysate, creating conditions that promote the selective binding of RNA to the RNeasy membrane. […] The amount of extracted RNA was quantified by estimating the absorbance at 260 nm. The purity of the RNA was checked by measuring the ratio of the absorbance at 260 and 280 nm, where a ratio ranging from 1.8 to 2.0 was taken to be pure. […]
(§1) Quantitative real-time PCR was carried out with the Thermal Cycler Rotorgene Real-Time System II (Rotorgene, South Korea) with the SYBR kit. […]
The relative expression levels through the average cycle threshold (CT) were successfully detected. Average CT values were calculated from the triplicate experiment conducted for each gene; the CT value was detected by subtracting the average CT value of genes from the CT value of actin and GAPDH genes. The relative expression levels of the target genes were calculated using the ΔΔ Ct method and the reference genes GAPDH for the cancer cell line. Finally, a fold change equation […] was used to estimate relative expression levels, while the standard deviation was calculated from the replicated experimental data.

[2] = test system: caspase-3 gene in HCT-116 cells; test: qRT-PCR expression profile of the caspase-3 gene in HCT-116 cells; format: cell-based, human; set-up: dose or concentration left out as unconfirmed; conditions: 24 h, as compared to the negative control
Description: Normally, apoptosis, or programmed cell death, is considered as a safeguard mechanism for managing stress and maintaining tissue homeostasis. It proceeds through a series of well-ordered biochemical cascades of events, which are regulated by a network of proteins. However, due to genetic and epigenetic mutations, deregulation of these proteins occurs, which results in evasion of apoptosis. This oncogenic transformation is a hallmark of human cancer, and it contributes to other tumorigenic events, including uncontrolled growth, accumulation of further genetic mutations, tumor angiogenesis and metastasis and chemotherapeutic resistance. Therefore, reinitiating selective cancer cell death is a fundamental goal in anticancer drug development. Research in cancer biology has provided fundamental insights into the apoptotic pathways and their deregulation in colon cancer. Moreover, it has identified the molecular targets for reinitiating selective tumor cell death, including antiapoptotic Bcl-2 family proteins, apoptosis inhibitors and activators of the TRAIL death receptor signaling pathway, as well as other apoptotic markers, such as caspases. Among the caspases, which play critical roles in apoptosis, are the initiators, including caspases-8 or 9, and the effectors, including caspase-3 and caspase-7. […] Thus, the real-time quantitative PCR analyses of caspase-3-gene levels following treatment with compounds 4d and 4K at a concentration […] for 24 h, were performed to investigate their potential as proapoptotic agents. […]
Total RNA was extracted from each cell culture flask using the RNeasy extraction kit (RNeasy micro kit, cat. no. 74004). […] The amount of extracted RNA was quantified by estimating the absorbance at 260 nm. The purity of the RNA was checked by measuring the ratio of the absorbance at 260 and 280 nm, where a ratio ranging from 1.8 to 2.0 was taken to be pure. […]
as §1

[3] = DPPH radical scavenging assay
Summary of the method: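 Ethanolic DPPH mixed with samples at 0.03 to 1 mg/mL, kept 1 h at room temperature in darkness, then absorbance read at 519 nm against compound-free control. Scavenging percentage computed as (1 − Acompound/Acontrol) × 100; IC50 interpolated from scavenging-versus-concentration plot.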

[4] = Reducing power assay (FRAC, Fe3+ to Fe2+); conditions: 0-1 mg/mL, absorbance 700 nm
Summary of the method: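 Oyaizu method: compound (0–1 mg/mL) incubated with 0.2 M phosphate buffer pH 6.6 and 1% K3Fe(CN)6 at 50 °C for 20 min, then TCA, centrifugation, and 0.1% FeCl3 added to supernatant. Absorbance read at 700 nm; EC50 expressed in mM, BHT as reference.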

[5] = test system: B. cereus (ATCC 14579); test: Antibacterial agar diffusion method (inhibition zone); format: cell-based
Summary of the method: (§2)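 Agar diffusion: inhibition zone on top agar, ampicillin 10 µg/well reference. CFU assay: compound mixed with 2 ×10^7 CFU/mL in BHI, shaken 60 min at 37 °C, serially diluted, plated and grown 24 h at 37 °C; IC50 from residual CFUs versus initial inoculum, mean of three measurements.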

[6] = test system: B. subtilis (ATCC 6633); test: as above; format: cell-based
Summary of the method: as §2

[7] = test system: E. coli (ATCC 25966); test: as above; format: cell-based; conditions: E. coil (ATCC 25966)
Summary of the method: as §2

[8] = test system: E. faecalis (ATCC 29122); test: as above; format: cell-based
Summary of the method: as §2

[9] = test system: K. pneumonia (ATCC 700603); test: as above; format: cell-based
Summary of the method: as §2

[10] = test system: P. aeruginosa (ATCC 27853); test: as above; format: cell-based
Summary of the method: as §2

[11] = test system: S. aureus (ATCC 25923); test: as above; format: cell-based
Summary of the method: as §2

[12] = test system: S. enteric (ATCC 43972); test: as above; format: cell-based
Summary of the method: as §2

[13] = test system: S. epidermidis (ATCC 14990); test: as above; format: cell-based
Summary of the method: as §2

[14] = test system: B. cereus (ATCC 14579); test: Antibacterial viability (CFU) assay, IC50; format: cell-based; conditions: Bacillus cereus, ATCC14579
Summary of the method: as §2

[15] = test system: B. subtilis (ATCC 6633); test: Antibacterial viability (CFU) assay, IC50; format: cell-based; conditions: Bacillus subtilis, ATCC6633, B. subtilis (ATCC 6633)
Summary of the method: as §2

[16] = test system: E. coli (ATCC 25966); test: Antibacterial viability (CFU) assay, IC50; format: cell-based; conditions: Escherichia coli, ATCC25966; E. coil (ATCC 25966)
Summary of the method: as §2

[17] = test system: E. faecalis (ATCC 29122); test: Antibacterial viability (CFU) assay, IC50; format: cell-based; conditions: Enterococcus faecalis, ATCC29122
Summary of the method: as §2

[18] = test system: K. pneumonia (ATCC 700603); test: Antibacterial viability (CFU) assay, IC50; format: cell-based; conditions: Klebsiella pneumoniae, ATCC700603
Summary of the method: as §2

[19] = test system: P. aeruginosa (ATCC 27853); test: Antibacterial viability (CFU) assay, IC50; format: cell-based; conditions: Pseudomonas aeruginosa, ATCC27853
Summary of the method: as §2

[20] = test system: S. aureus (ATCC 25923); test: Antibacterial viability (CFU) assay, IC50; format: cell-based; conditions: Staphylococcus aureus, ATCC25923
Summary of the method: as §2

[21] = test system: S. enteric (ATCC 43972); test: Antibacterial viability (CFU) assay, IC50; format: cell-based; conditions: read-out: IC50
Summary of the method: as §2

[22] = test system: S. epidermidis (ATCC 14990); test: Antibacterial viability (CFU) assay, IC50; format: cell-based; conditions: Staphylococcus epidermidis, ATCC14990
Summary of the method: as §2

[23] = test system: HCT-116 cells; test: Cell viability (cytotoxicity, LDH release) assay; format: cell-based; conditions: Homo sapiens, 24 h
Summary of the method: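 Human colorectal HCT-116 cells exposed to compounds at 10, 25, 50 and 100 µg/mL in DMEM with 10% FBS for 24 h at 37 °C. LDH released into the supernatant measured at 600 nm; viability given as % of untreated control OD (mean ± SD, n = 3), 0.1% Triton X-100 as positive control.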

[24] = target: T1, CDK2/CyclinA2 enzyme (Homo sapiens, UniProt P24941); test: In vitro CDK2 inhibitory assay (Kinase-Glo); format: biochemical
T1 construct: purchased BPS Biosciences, San Diego, CA, USA 79599
Protocol: To further substantiate the promising results of the docking analyses of pyrans 4d and 4K in the ATP active site of CDK2, their in vitro potencies to inhibit the enzyme activity were evaluated over a concentration range of 0.01−10 µM.
CDK-2 inhibition activity of the studied compounds 4d and 4k was evaluated using a commercial CDK2 […] (cat. no.: 79599; BPS Biosciences, San Diego, CA, USA) following the manufacturer’s instructions. Briefly, different concentrations of each compound or the positive control BMS-265246 (0.01, 0. 1, 1 or 10 µM) were incubated with 20 µL of diluted CDK2/CyclinA2 enzyme at 30 °C for 45 min. Following the addition of 50 µL Kinase-Glo® Reagent to each well, the plate was incubated at room temperature for 15 min. Then, the luminescence signal was measured using the microplate reader. The CDK2 inhibitory activity was expressed as inhibition percentage, which was determined by comparison with a control experiment for comparative purposes. IC50 values were deduced from the curves. All measurements were performed in triplicate.

[25] = test system: CDK2 protein in HCT-116 cells; test: Quantitative determination of CDK2 concentration in HCT-116 cell lysates (Human CDK2 ELISA Kit); format: cell-based; conditions: negative control 7.466 ng/mL
Protocol: First, the commercial Human CDK2 ELISA Kit was used to estimate concentrations of the protein in the lysate of HCT-116 cells treated with 4d and 4k. The results were compared with the positive (cells treated with the reference CDK inhibitor, BMS-265246) and negative control experiments.
The in vitro quantitative measurement of concentration of CDK2 in lysates of HCT-116 cells was carried out using a commercial Human CDK2 ELISA Kit (cat. no.: LS-F22176; LifeSpan Biosciences Inc., Seattle, WA, USA) in the presence or absence of the studied compounds (4d and 4k), following the manufacturer’s instructions. Briefly, standards, blanks or samples were first incubated in the corresponding wells for 90 min at 37 °C. Then, biotinylated detection antibody was added to each well and the plate was incubated for 1 h at 37 °C followed by the addition of an Avidin–Horseradish Peroxidase (HRP) conjugate which binds to the biotin. After incubation of the mixture for 30 min at 37 °C, unbound Avidin–HRP conjugate was washed away and a TMB substrate was then added which reacts with the HRP enzyme, resulting in color development. After that, the reaction was stopped using a sulfuric acid stop solution to terminate the color-development reaction and the optical density of each well was measured using a microplate reader at 450 nm. BMS-265246 was used as the standard drug for inhibition of CDK2. All measurements were performed in triplicate.

SMILES: O=c1[nH]cc(F)c(=O)[nH]1 [5-FU, 5-fluorouracil, reference compound]
- CDK2 transcript level, fold [1]: 0.29 fold
- caspase-3 gene transcription level, fold increase [2]: 7.31 fold

SMILES: COc1cc(OC)c(C2C(C#N)=C(N)Oc3n[nH]c(C)c32)c(OC)c1 (stereo not drawn) [5b, 6-Amino-3-methyl-4-(2,4,6-trimethoxy-phenyl)-2,4-dihydro-pyrano[2,3-c]pyrazole-5-carbonitrile]
- IC50 ([3]; 0.03 to 1 mg/mL, 1 h, mean ± SD, triplicate, read-out: IC50 (mM) for DPPH Scavenging Potency): 1.78 ± 0.082 mM
- DPPH Radical Scavenging Effenciency (%) at 1 mg/mL ([3]; at 1 mg/mL): 37.50 ± 2.12%
- EC50 [4]: 467 ± 41 µM
- IZ (mm) [5]: 8.00 ± 1.41 mm
- IZ (mm) [6]: 8.50 ± 0.71 mm
- IZ (mm) [7]: 3.5 ± 0.71 mm
- IZ (mm) [8]: 9.75 ± 1.06 mm
- IZ (mm) [9]: 4.5 ± 0.7 mm
- IZ (mm) [10]: 6.5 ± 0.7 mm
- IZ (mm) [11]: 5.50 ± 0.71 mm
- IZ (mm) [12]: 7.5 ± 0.7 mm
- IZ (mm) [13]: 6.60 mm and 6.60 ± 0.57 mm
- IC50 [14]: 42.6 ± 1.66 µM
- IC50 [15]: 41.8 ± 1.23 µM
- IC50 [16]: 117 ± 4.09 µM
- IC50 [17]: 45.1 ± 1.87 µM
- IC50 [18]: 110 ± 1.75 µM
- IC50 [19]: 92.3 ± 1.46 µM
- IC50 [20]: 39.1 ± 1.66 µM
- IC50 [21]: 106 ± 2.92 µM
- IC50 [22]: 50.1 ± 0.61 µM
- viability at 100 µg/mL ([23]; 100 µg/mL, read-out: percent of viable cells): 11 to 32.5%
- IC50 ([23]; read-out: Mean IC50 (µM) of cytotoxicity): 97.9 ± 7.06 µM
- IC50 ([23]; read-out: Mean IC50 (µg/mL) of cytotoxicity): 33.5 ± 2.42 µg/mL
- melting point: 182 to 184 °C

SMILES: CCCCOc1c(C(=O)c2c(F)cc(C)cc2F)c[nH]c2nncc1-2 [BMS-265246, reference compound]
- decrease of CDK2 activity ([24]; at 10 µM): 92.3%
- IC50 ([24]; deduced from curves over 0.01-10 µM, read-out: IC50 against CDK2): 0.036 µM
- concentration of CDK2 in lysate of treated HCT-116 cells [25]: 2.229 ng/mL

— publication PMC9317316, “Synthesis and Evaluation of Some New 4H-Pyran Derivatives as Antioxidant, Antibacterial and Anti-HCT-116 Cells of CRC, with Molecular Docking, Antiproliferative, Apoptotic and ADME Investigations” (Pharmaceuticals, 2022)
